Reference: patent publication US20050101560A1, “Method of treating an individual with methyl 1-[N6-(3-iodobenzyl)-adenin-9-yl] beta-D-ibofuronamide” (CAN-FITE BIOPHARMA LTD., priority 2003, published 2005)
“And” between values parts separate entries of the source, which are not always exact repeats. Equal values may be shown once. “Also recorded” adds a separate entry of the source.

Columns and labels:
[1] = Single dose study: plasma pharmacokinetics after a single oral dose; type: in vivo, human; settings: for AUC(0-48): mean (SD)
Protocol: (§1) Two clinical studies were carried out: a single dose study and a repeat dose study. Both studies were parallel-group, double-blind, dose-rising, and placebo-controlled in design.
(§2) In each group, 1 subject received placebo. […] In each group, 2 subjects received placebo.
(§3) Healthy young men, aged 18-45 years.
(§4) In the repeated dose study, an aqueous 0.5% methylcellulose suspension (Methocel A4M Premium, The Dow Chemical Company) was used. In both studies, the study medication was taken orally as a drink, followed by 50 ml of tap water.
(§5) The following procedures were done: • Safety assesment: laboratory assessments (routine biochemistry and urinalysis), physical examination, 12-lead ECO, ambulatory ECG, pulmonary function testing (FEV1), vital signs (semi-recumbent in the single dose study; semi-recumbent and standing in the repeat dose study).
(§6) Plasma samples were assayed for IB-MECA using LC/MS/MS. The lower limit of quantification (LLOQ) was 0.1 ng/mL. Intra-assay coefficients of variation (CV) were <5.0% and inter-assay CVs were <9.4%.
(§7) Maximum concentration (Cmax) and time to maximum concentration (tmax) were observed values. Other pharmacokinetic parameters (half-life, to AUC; and clearance, CL/F) were calculated by non-compartmental methods using WinNonlin® software (version 3.0, Pharsight, Mountain View, Calif., US). Accumulation indices of Cmax and AUC were calculated as ratio of values at steady state (Day 7) to the values on Day 1.

[2] = test system: various tumour cell types; settings: arresting cell growth at GO/GI phase; Fishman et al, 2000a; cited from earlier work
[3] = Single dose study: safety and tolerability; type: in vivo, human; settings: for safety and tolerability: single (daily) oral dose up to 5 mg
Protocol: as §1, §2, §3, §4, §5
(§8) Data from all subjects who received IB-MECA were included in the analysis of safety and tolerability (adverse events and laboratory safety variables). Numerical data and parameters were summarised using means or medians, and other descriptive statistics, according to the type and distribution of the data.

[4] = Water solubility; type: physicochemical
[5] = Repeat dose study: plasma pharmacokinetics on Days 1 and 7 of 12-hourly oral dosing; type: in vivo, human
Protocol: as §1, §2, §3, §4, §5, §6, §7

[6] = Repeat dose study: safety and tolerability; type: in vivo, human; settings: for safety and tolerability: twice daily (12-hourly) oral dose up to 4 mg
Protocol: as §1, §2, §3, §4, §5, §8

[7] = test system: neutrophils; settings: cited from earlier work
[8] = test system: syngeneic (melanoma, colon carcinoma) and xenograft (colon and prostate carcinoma) mouse models; settings: cited from earlier work
[9] = 2 mg oral every 12 h, Day 1, mean (SD), n = 5
[10] = 2 mg oral every 12 h, Day 7, mean (SD), n = 5
[11] = 3 mg oral every 12 h, Day 1, mean (SD), n = 5
[12] = 3 mg oral every 12 h, Day 7, mean (SD), n = 5
[13] = 4 mg oral every 12 h, Day 1, mean (SD), n = 5
[14] = 4 mg oral every 12 h, Day 7, mean (SD), n = 5
[15] = 5 mg oral every 12 h, Day 1, mean (SD), n = 5
[16] = 5 mg oral every 12 h, Day 7, mean (SD), n = 5

SMILES: CNC(=O)[C@H]1O[C@@H](n2cnc3c(NCc4cccc(I)c4)ncnc32)[C@H](O)[C@@H]1O [IB-MECA, methyl 1-[N6-(3-iodobenzyl)-adenin-9-yl]-β-D-ibofuronamide]
- plasma level (Cmax) at safe doses ([1]; single daily dose of 5 mg and twice daily dose of 4 mg): < 0.08 µg/mL
- AUC(0-48) ([1]; single oral dose 1 mg, n = 4): 0.2207 µg·h/mL
- tmax ([1]; single oral dose 1 mg, median (range), n = 4): 1 (1-2) h
- AUC(0-48) ([1]; single oral dose 5 mg, n = 4): 0.8723 µg·h/mL
- tmax ([1]; single oral dose 5 mg, median (range), n = 4): 1 (1-2) h
- AUC(0-48) ([1]; single oral dose 10 mg, n = 4): 1.78 µg·h/mL
- tmax ([1]; single oral dose 10 mg, median (range), n = 4): 1 (1-2) h
- inter-subject variability ([1]; single oral doses): low
- pharmacokinetics (linearity) ([1]; single oral doses 1, 5, 10 mg): linear
- tmax ([1]; single oral doses 1, 5, 10 mg, overall range): 1 to 2 h
- apparent plasma clearance (CL/F) ([1]; single oral doses, independent of dose): 47 L/h
- effect on tumour cell growth [2]: cytostatic effect
- blood level correlated with side effects ([3]; healthy adults, oral dosing): exceeding 160 nM and > 80 ng/ml
- safety and tolerability [3]: safe and well tolerated
- safety and tolerability ([3]; listed as 13-MCA): well tolerated
- side effects ([3]; single daily oral dose 10 mg): some cardiovascular-related side effects
- change in resting heart rate ([3]; single dose 5 mg, four subjects): small increase
- adverse events within 12 h of dosing (number) ([3]; single dose of 10 mg): 8
- safety tests of blood and urine ([3]; single dose study): no clinically significant changes
- change in blood pressure ([3]; single dose study, not measured standing): In no subject was there a significant change
- water solubility [4]: not water soluble
- AUC(0-12) [5, 9]: 155.2 (39.1) ng · h/mL
- AUC(inf) [5, 9]: 207.4 (52.0) ng · h/mL
- tmax ([5]; 2 mg oral every 12 h, Day 1, median (range), n = 5): 2 (1-4) h
- AUC(0-12) [5, 10]: 242.4 (41.4) ng · h/mL
- AUC(0-24) [5, 10]: 346.3 (64.0) ng · h/mL
- tmax ([5]; 2 mg oral every 12 h, Day 7, median (range), n = 5): 2 (1-2) h
- AUC(0-12) [5, 11]: 304.5 (19.5) ng · h/mL
- AUC(inf) [5, 11]: 423.5 (27.5) ng · h/mL
- tmax ([5]; 3 mg oral every 12 h, Day 1, median (range), n = 5): 2 (1-2) h
- AUC(0-12) [5, 12]: 341.6 (38.1) ng · h/mL
- AUC(0-24) [5, 12]: 512.1 (74.1) ng · h/mL
- tmax ([5]; 3 mg oral every 12 h, Day 7, median (range), n = 5): 1 (1-2) h
- AUC(0-12) [5, 13]: 297.0 (57.2) ng · h/mL
- AUC(inf) [5, 13]: 400.2 (85.7) ng · h/mL
- tmax ([5]; 4 mg oral every 12 h, Day 1, median (range), n = 5): 2 (1-2) h
- AUC(0-12) [5, 14]: 458.3 (54.8) ng · h/mL
- AUC(0-24) [5, 14]: 640.3 (73.7) ng · h/mL
- tmax ([5]; 4 mg oral every 12 h, Day 7, median (range), n = 5): 1 (1-2) h
- AUC(0-12) [5, 15]: 461.6 (157.4) ng · h/mL
- AUC(inf) [5, 15]: 596.1 (196.6) ng · h/mL
- tmax ([5]; 5 mg oral every 12 h, Day 1, median (range), n = 5): 2 (1-2) h
- AUC(0-12) [5, 16]: 601.0 (163.6) ng · h/mL
- AUC(0-24) [5, 16]: 818.4 (214.0) ng · h/mL
- tmax ([5]; 5 mg oral every 12 h, Day 7, median (range), n = 5): 2 (2-2) h
- dose proportionality of plasma concentrations ([5]; Day 1 and steady state (Day 7)): dose proportional
- tmax ([5]; repeated oral doses 2-5 mg every 12 h, overall): 1 to 2 h
- time at which steady state was reached ([5]; repeated oral doses every 12 h): ≤ 3 days
- change of pharmacokinetics after repeated dosing ([5]; repeated oral doses every 12 h for 7 days): did not change
- Half-life at steady state ([5]; repeated oral doses, Day 7, independent of dose): 9 to 10 h
- apparent plasma clearance (CL/F) ([5]; repeated oral doses, independent of dose): 5 to 10 L/h
- adverse events ([6]; 5 mg oral twice daily): some cardiovascular-related adverse events; also recorded: headache and drowsiness were most common
- safety tests of blood and urine ([6]; repeat dose study): no clinically significant changes
- heart rate ([6]; repeat dose study, Day 1): dose-related increase
- heart rate effect ([6]; repeat dose study, Day 7 versus Day 1): clearly smaller
- adverse events within 12 h of dosing (number) ([6]; repeated doses of 5 mg 12-hourly): 13
- adverse events within 12 h of dosing (number) ([6]; repeated doses of up to 4 mg 12-hourly): 2
- safety and tolerability [6]: safe and well tolerated
- safety and tolerability ([6]; listed as 13-MCA): well tolerated
- maximum tolerated dose ([6]; twice-daily therapeutic regimen): 4 mg
- myelotoxicity ([7]; administered with chemotherapy): protects against myelotoxicity
- neutrophil recovery ([7]; oral administration, after cytotoxic drug therapy): stimulates neutrophil recovery
- production of neutrophils ([7]; oral, mice, via an increase in G-CSF): stimulates the production of neutrophils
- colon carcinoma growth ([8]; oral administration, nude mice): inhibits colon carcinoma growth
- development of tumours ([8]; orally administered, syngeneic and xenograft mouse models): inhibits the development of tumours
